Patent publication US11202818B2, “Methods and compositions for modulating erythropoiesis” (President and Fellows of Harvard College, priority 2016, dated 2021)

Test system: Kit+CD55+Lin-CD71lo BM cells
Test: ETD activation in cultured pre-ETD BM cells with S phase arrest
Assay type: cell-based, mouse
Description: To test whether the synchronization of ETD activation with S phase reflects mechanistic dependence, BM cells were isolated prior to the onset of ETD (Kit+CD55+Lin−CD71lo, FIG. 5, Panels f-h). The cells were cultured in the presence of Epo, which allowed them to activate the ETD, reflected first by the upregulation of CD71, followed by the upregulation of the erythroid cell surface marker Ter119, and induction of the beta-globin gene (Hbb-b1). […] The ensuing ETD activation proceeded with a 10-hour delay in the induction of CD71 and Hbb-b1 (FIG. 5, Panels g and h).

[1] = added for the first 10 hours of culture with Epo

C[C@@]1(CO)[C@H](O)CC[C@@]2(C)[C@H]1CC[C@H]1C[C@@H]3C[C@@]12CC[C@]3(O)CO [aphidicolin]
effect on S phase [1]: arrested S phase | effect on upregulation of CD71 [1]: paused upregulation of CD71 | delay in the induction of CD71 and Hbb-b1 (after removal, added for the first 10 hours): 10 h
